Patent US20090280483A1, “Methods for Screening Interleukin-6 (IL-6) Signal Transduction Inhibitors” (priority 2005, published 2009)
Blank lines part the entries; values can stand above or below the compound they belong to.

Legend:
STAT3 [1] = biological target: T1, STAT3 (Mus musculus, UniProt P42227); assay: Western blotting of IL-6-induced tyrosine phosphorylation of STAT3 in M1 cells; assay type: cell-based, murine
T1 construct: Exponentially proliferating M1 cells cultured in RPMI medium; endogenous in cells; host or cells: M1 cells
T1 sequence (P42227 whole entry): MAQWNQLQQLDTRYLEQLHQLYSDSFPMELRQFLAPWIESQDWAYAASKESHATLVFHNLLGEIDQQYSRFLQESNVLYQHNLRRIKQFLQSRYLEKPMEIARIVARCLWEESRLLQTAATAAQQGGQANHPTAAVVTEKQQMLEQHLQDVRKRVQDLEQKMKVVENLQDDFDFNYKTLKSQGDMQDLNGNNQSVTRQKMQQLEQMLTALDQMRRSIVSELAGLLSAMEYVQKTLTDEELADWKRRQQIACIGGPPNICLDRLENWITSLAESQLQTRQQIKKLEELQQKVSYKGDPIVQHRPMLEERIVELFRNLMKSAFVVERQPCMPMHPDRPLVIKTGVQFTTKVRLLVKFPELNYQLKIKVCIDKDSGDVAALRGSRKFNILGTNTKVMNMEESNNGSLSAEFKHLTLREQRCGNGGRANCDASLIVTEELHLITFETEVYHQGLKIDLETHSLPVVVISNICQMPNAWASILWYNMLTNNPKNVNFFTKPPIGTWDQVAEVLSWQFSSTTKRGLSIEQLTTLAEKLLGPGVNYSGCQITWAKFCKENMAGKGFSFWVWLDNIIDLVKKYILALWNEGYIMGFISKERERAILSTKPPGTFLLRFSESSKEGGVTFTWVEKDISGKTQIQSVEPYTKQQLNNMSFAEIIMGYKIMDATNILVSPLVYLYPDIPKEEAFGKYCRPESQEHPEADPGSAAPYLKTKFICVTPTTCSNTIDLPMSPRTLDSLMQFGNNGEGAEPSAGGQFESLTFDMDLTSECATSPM
Procedure: Exponentially proliferating M1 cells cultured in RPMI medium supplemented with 10% fetal calf serum (FCS) in culture dish were treated with dimethyl sulfoxide (DMSO) and Compound No. 1, 2, 7, 10, 13, 14 or 16 at a final concentration of 10 μM for 30 minutes. Then, the cells were divided into two equal parts and incubated with or without murine IL-6 at a final concentration of 10 ng/ml for further 1 hour. Then, the M1 cells were suspended at a density of 1×10^7 cells/ml in lysis buffer (0.5% Triton X-100, 50 mM Tris-HCl, (pH7.5), 0.1 mM EDTA, 150 mM NaCl, 200 μM Na3VO4, 50 mM NaF, 1 mM dithiothreitol (DTT), 0.4 mM phenylmethylsulfonyl fluoride (PMSF), 3 μg/mL aprotinin, 2 μg/mL pepstatin A, 1 μg/mL leupeptin) and placed on ice for 30 minutes. The precipitate was removed by centrifuging the cell lysate at 12000 g for 15 minutes.
The samples thus obtained were separated by sodium dodecyl sulfate-polyacrylamide gel electrophoresis (SDS-PAGE). After the electrophoresis, the gel was placed on a PVDF transfer membrane prewetted in methanol for 10-20 seconds and then soaked in transfer buffer (25 mM tris, 192 mM glycine, 10% methanol, 0.1% SDS), and the assembly was sandwiched between two layers each consisting of 5 sheets of filter paper soaked in transfer buffer, whereby proteins were transferred to the transfer membrane using a semi-dry transfer method.
After transfer, the transfer membrane was shaken in blocking buffer (5% BSA, 1% BSA, 0.1% NaN3) for 30 minutes or more. Then, the membrane was washed with PBST (137 mM NaCl, 2.7 mM KCl, 1.5 mM KH2PO4, 8.1 mM Na2HPO4, 0.05% Tween20) three times for 5 minutes by shaking. The membrane was shaken for 60 minutes in an anti-STAT3 polyclonal antibody (C-20, Santa Cruz Biotechnology, Santa Cruz, Calif.) and an anti-phosphorylated STAT3 monoclonal antibody (B-7, Santa Cruz Biotechnology) as primary antibodies both diluted 1:1000 in PBST.
Then, the membrane was washed with PBST three times for 5 minutes by shaking. […]

STAT3 [2] = biological target: T2, STAT3 (Homo sapiens, UniProt P40763); assay: Luciferase assay of IL-6-induced transcriptional activity of STAT3 in 293T cells; assay type: cell-based; details: GFAP promoter firefly luciferase reporter, 20 μM for 1 hour, then human IL-6 10 ng/ml for 16 hours
T2 construct: Exponentially proliferating 293T cells cultured in Dulbecco's Modified Eagle's Medium; endogenous in cells; host or cells: 293T cells
T2 sequence (P40763 whole entry): as the sequence (P42227 whole entry) above, with D760E counted along it
Procedure: A reporter vector (2 μg) containing the firefly luciferase gene linked downstream of the glial fibrillary acidic protein (GFAP) gene promoter sequence and an internal control vector (0.1 μg) containing the EF1 gene promoter linked to the Renilla luciferase gene were transfected into 293T cells at 1×10^6 cells/well in 12-well plates using Lipofectamine Plus Reagent (Life Technologies, Bethesda, Md.) as instructed by the manufacturer. Twenty-three hours after the transfection, dimethyl sulfoxide (DMSO) and Compounds No. 1, 2, 4, 7, 10, 13, 14 and 16 each at a final concentration of 20 μM were added. One hour after the compounds were added, the cells treated with each compound were divided into two equal parts and stimulated or not with human IL-6 at a final concentration of 10 ng/ml. After 16 hours, cell extracts were prepared from the cells and measured for the specific activity of firefly luciferase to Renilla luciferase using Dual luciferase reporter system (Promega, Madison, Wis.).

ERK1/2 = assay: Western blotting of IL-6-induced phosphorylation of ERK1/2 in M1 cells; assay type: cell-based; details: murine IL-6 10 ng/ml, time course 0 to 24 hours
STAT3 [3] = biological target: T2, STAT3; assay: Western blotting of IL-6-induced tyrosine phosphorylation of STAT3 in 293T cells; assay type: cell-based; details: 20 μM for 1 hour, then IL-6 10 ng/ml for 16 hours
Procedure: Exponentially proliferating 293T cells cultured in Dulbecco's Modified Eagle's Medium (DMEM) supplemented with 10% fetal calf serum (FCS) in culture dish were incubated with dimethyl sulfoxide (DMSO) and Compounds No. 1, 2, 4, 7, 10, 13, 14 or 16 at a final concentration of 20 μM for 1 hour. Then, the cells were divided into two equal parts and incubated with or without murine IL-6 at a final concentration of 10 ng/ml for further 16 hours. Then, the 293T cells were suspended at a density of 1×10^7 cells/ml in lysis buffer, and placed on ice for 30 minutes. The precipitate was removed by centrifuging the cell lysate at 12000 g for 15 minutes.
The subsequent Western blot step was performed by the method described above.

KT-3 cells = assay: Negative screening: IL-6-dependent proliferation of KT-3 cells (FACS); assay type: cell-based; details: 10 μM (No. 4 at 2 μM), human IL-6 5 ng/ml, 48 hours
Procedure: Human tumor cell line KT-3 cells known to have the property of proliferating by IL-6 stimulation were used for negative screening.
KT-3 cells were grown to confluency, and plated on 6-well plates at 1×10^5 cells/well in RPMI medium supplemented with 10% fetal calf serum (FCS) containing human IL-6 (5 ng/ml). After incubation for 3 hours, dimethyl sulfoxide (DMSO) and the 18 compounds (Nos. 1-18) each at a final concentration of 10 μM (except for No. 4 at 2 μM) were added, and incubation was continued for 48 hours.
The human tumor cell line KT-3 cells treated as above were suspended at about 1×10^6 cells/100 μl in RPMI medium supplemented with 10% FCS. Then, FSC/SSC dot plots of these cells were obtained by using FACS Calibur (Becton Dickinson).

inhibition of tyrosine phosphorylation of STAT3 (STAT3 [1]; 10 μM for 30 minutes, then murine IL-6 10 ng/ml for 1 hour): obvious inhibition
inhibition of tyrosine phosphorylation of STAT3 (time course) (STAT3 [1]; 10 μM, IL-6 10 ng/ml, at 3 hours or later after the compounds were added): inhibition
Structure (SMILES): Br.O=[N+]([O-])c1ccc(-c2csc(Nc3cc(C(F)(F)F)cc(C(F)(F)F)c3)n2)cc1 [compound 13]

inhibition of tyrosine phosphorylation of STAT3 (time course) (STAT3 [1]; murine IL-6 10 ng/ml, at 3, 6, and 24 hours after the compound was added): obvious inhibition
inhibitory effect on the transcriptional activity of STAT3 (STAT3 [2]): obvious inhibitory effect
inhibition of tyrosine phosphorylation of STAT3 (STAT3 [3]): obvious inhibition
Structure (SMILES): Br.O=[N+]([O-])c1ccc(-c2csc(Nc3cc(C(F)(F)F)cc(C(F)(F)F)c3)n2)cc1 [Compound No. 2]
influence on the phosphorylation of ERK1/2 induced by IL-6 (ERK1/2): no influence

Structure (SMILES): Br.O=[N+]([O-])c1ccc(-c2csc(Nc3cc(C(F)(F)F)cc(C(F)(F)F)c3)n2)cc1 [Compound No. 1]
inhibition of IL-6-dependent proliferation of KT-3 cells (KT-3 cells): inhibition of cell proliferation
